The values that follow come from ChEMBL document CHEMBL1125126, “Torsionally and hydrophobically modified 2,3-diarylindenes as estrogen receptor ligands” (J Med Chem, 1990).

The assay concerns the target Estrogen receptor (Rattus norvegicus) (UniProt P06211+Q62986). Briefly: Displacement of [3H]estradiol from rat uterine estrogen receptor. Type of assay: protein assay.
Turning to `Oc1ccc2c(c1)CC(c1ccccc1)=C2c1ccccc1F`, the RBA worked out at 12%.

`Oc1ccc2c(c1)CC(c1ccccc1F)=C2c1ccccc1` gave an RBA of 49%.

Turning to `Cc1ccc(C2=C(c3ccccc3)Cc3cc(O)ccc32)cc1`, the RBA turned out to be 1.7%.

For the compound `Cc1ccccc1C1=C(c2ccccc2)c2ccc(O)cc2C1`, the RBA worked out at 100%.

`Cc1ccccc1C1=C(c2ccccc2)Cc2cc(O)ccc21` displayed an RBA of 11%.

Turning to `Oc1ccc(C2=C(c3ccccc3)Cc3cc(O)ccc32)c(F)c1`, the RBA is 9.6%.

For `Cc1ccccc1C1=C(c2ccc(O)cc2)c2ccc(O)cc2C1`, the RBA was found to be 23%.
